Our source for the relative viability values is the supplement of paper PMC10307832.

What all share (assay): relative viability (nuclei count vs DMSO), 5 days (fraction); higher = more cells survive
Compound in assay [1]: NC1(c2ccc(-c3nc4ccn5c(=O)[nH]nc5c4cc3-c3ccccc3)cc2)CCC1 [MK-2206] + CC1(C)CCC(c2ccc(Cl)cc2)=C(CN2CCN(c3ccc(C(=O)NS(=O)(=O)c4ccc(N[C@H](CCN5CCOCC5)CSc5ccccc5)c(S(=O)(=O)C(F)(F)F)c4)cc3)CC2)C1 [Navitoclax] (partner 0.5 µM)
A digest of the protocol:
(§1)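 Lung cancer cell lines were seeded in 1536-well plates and dosed by pin tool the next day, with either a single drug or a fixed anchor-drug dose combined with five library-drug doses (not always all listed) spaced in √10 steps. Five days later, one step fixed the cells and stained their nuclei (final 0.05% Triton X-100, 1% formaldehyde, 1 ug/ml Hoechst), and nuclei were counted on 4× images. Relative viability is the nuclei count in treated wells divided by the count in vehicle wells, and each value is the median of duplicate plates.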

Compound in assay [2]: CS(=O)(=O)N1CCN(Cc2cc3nc(-c4cccc5[nH]ncc45)nc(N4CCOCC4)c3s2)CC1 [Pictilisib] + Nc1ncn([C@H]2C[C@H](O)[C@@H](CO)O2)c(=O)n1 [Decitabine] (partner 2 µM)
Put shortly:
as §1

Compound in assay [3]: CS(=O)(=O)N1CCN(Cc2cc3nc(-c4cccc5[nH]ncc45)nc(N4CCOCC4)c3s2)CC1 [Pictilisib] + COc1cccc2cc(-c3nc([C@H]4CC[C@H](C(=O)O)CC4)n4ncnc(N)c34)[nH]c12 [OSI-027] (partner 0.5 µM)
Put shortly:
as §1

Compound in assay [4]: NC1(c2ccc(-c3nc4ccn5c(=O)[nH]nc5c4cc3-c3ccccc3)cc2)CCC1 [MK-2206] + C[C@@H](Oc1cc(-c2cnn(C3CCNCC3)c2)cnc1N)c1c(Cl)ccc(F)c1Cl [Crizotinib] (partner 1 µM)
Put shortly: as §1

Compound in assay [5]: NC1(c2ccc(-c3nc4ccn5c(=O)[nH]nc5c4cc3-c3ccccc3)cc2)CCC1 [MK-2206] + COc1cccc2cc(-c3nc([C@H]4CC[C@H](C(=O)O)CC4)n4ncnc(N)c34)[nH]c12 [OSI-027] (partner 0.5 µM)
A digest of the protocol:
as §1

UMC-11: the relative viability was 0.309 in assay [1] (first compound 0.01 µM); 0.327 in assay [1] (first compound 0.03162 µM); 0.344 in assay [1] (first compound 0.3162 µM); 0.29 in assay [1] (first compound 1 µM); 0.644 in assay [2] (first compound 0.02 µM); 0.724 in assay [2] (first compound 0.06325 µM). The relative viability in assay [2] (first compound 0.6325 µM) was 0.566; in assay [2] (first compound 2 µM), 0.519; in assay [3] (first compound 0.02 µM), 0.538; in assay [3] (first compound 0.06325 µM), 0.526; in assay [3] (first compound 0.6325 µM) it was 0.48; in assay [3] (first compound 2 µM), 0.383. Moreover, the relative viability in assay [4] (first compound 0.01 µM) was determined as 0.61; in assay [4] (first compound 0.03162 µM), 0.569; in assay [4] (first compound 0.3162 µM) it was 0.603; in assay [4] (first compound 1 µM), 0.707; in assay [5] (first compound 0.01 µM), 0.491; in assay [5] (first compound 0.03162 µM), 0.567. For the same cell line, the values for the relative viability in assay [5] (first compound 0.3162 µM) and in assay [5] (first compound 1 µM) were 0.46 and 0.521, respectively.
